Key:
[1] = compound: C1CC(C1)(C(=O)[O-])C(=O)[O-].N.N.[Pt+2] [Carboplatin]; settings: max 10 µM
Outline: (§1)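 Cancer cell lines were seeded into 1536-well plates in 7.5 μl medium (DMEM/F12 or RPMI, 10% FBS), held 24 hours at 37°C and 5% CO2, and dosed for 72 hours with final DMSO typically 0.2%. Luminescence from CellTiter-Glo 2.0, scaled between blank-well and DMSO-well means, served as viability. The single-agent IC50 was obtained from dose-response fits with a non-linear mixed effects model, each fit being a two-parameter logistic curve.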

[2] = compound: C1CN(CCC1(C(=O)N[C@@H](CCO)C2=CC=C(C=C2)Cl)N)C3=NC=NC4=C3C=CN4 [AZD5363]; settings: max 10 µM
Outline: as §1

[3] = compound: C=CCn1c(=O)c2cnc(Nc3ccc(N4CCN(C)CC4)cc3)nc2n1-c1cccc(C(C)(C)O)n1 [AZD1775]; settings: max 3 µM
Outline: as §1

[4] = compound: CC(=O)Nc1cccc(-n2c(=O)n(C3CC3)c(=O)c3c(Nc4ccc(I)cc4F)n(C)c(=O)c(C)c32)c1 [Trametinib]; settings: max 1 µM
Outline: as §1

[5] = compound: CC(=O)O[C@H]1C(=O)[C@@]2(C)[C@H]([C@H](OC(=O)c3ccccc3)[C@]3(O)C[C@H](OC(=O)[C@H](O)[C@@H](NC(=O)c4ccccc4)c4ccccc4)C(C)=C1C3(C)C)[C@]1(OC(C)=O)CO[C@@H]1C[C@@H]2O [Paclitaxel]; settings: max 3 µM
Outline: as §1

[6] = compound: CC(=O)c1c(C)c2cnc(Nc3ccc(N4CCNCC4)cn3)nc2n(C2CCCC2)c1=O [Palbociclib]; settings: max 10 µM
Outline: as §1

[7] = compound: CC(C)n1c(=O)n(C)c2cnc3cc(F)c(-c4ccc(OCCCN5CCCCC5)nc4)cc3c21 [AZD1390]; settings: max 0.3 µM
Outline: as §1

[8] = compound: CC1(C)CCC(CN2CCN(c3ccc(C(=O)NS(=O)(=O)c4ccc(NCC5CCOCC5)c([N+](=O)[O-])c4)c(Oc4cnc5[nH]ccc5c4)c3)CC2)=C(c2ccc(Cl)cc2)C1 [Venetoclax]; settings: max 1 µM
Outline: as §1

[9] = compound: CC1=C(C(=CC=C1)Cl)NC(=O)C2=CN=C(S2)NC3=CC(=NC(=N3)C)N4CCN(CC4)CCO [Dasatinib]; settings: max 2 µM
Outline: as §1

[10] = compound: CC1=CN2[C@@H](C1)C=NC3=CC(=C(C=C3C2=O)OC)OCCCCCOC4=C(C=C5C(=C4)N=C[C@@H]6CC(=CN6C5=O)C)OC [SG3199]; settings: max 0.001 µM
Outline: as §1

[11] = compound: CCN(CCO)CCCOc1ccc2c(Nc3cc(CC(=O)Nc4cccc(F)c4)[nH]n3)ncnc2c1 [AZD2811]; settings: max 1 µM
Outline: as §1

[12] = compound: CCc1c2c(nc3ccc(O)cc13)-c1cc3c(c(=O)n1C2)COC(=O)[C@]3(O)CC [SN-38]; settings: max 0.3 µM
Outline: as §1

[13] = compound: CN(C)CCCOc1ccc(-c2ccc3ncc4c(c3c2)n(C2CCOCC2)c(=O)n4C)cn1 [AZD0156]; settings: max 3 µM
Outline: as §1

[14] = compound: CN(CC[C@H](CSC1=CC=CC=C1)NC2=C(C=C(C=C2)S(=O)(=O)NC(=O)C3=CC=C(C=C3)N4CCC(CC4)[C@H](C5=CC=CC=C5C6=CC=C(C=C6)Cl)O)S(=O)(=O)C(F)(F)F)CCO [AZD4320]; settings: max 1 µM
Outline: as §1

[15] = compound: COc1cc(Nc2ncc3c(n2)-c2ccc(Cl)cc2C(c2c(F)cccc2OC)=NC3)ccc1C(=O)O [Alisertib]; settings: max 10 µM
Outline: as §1

[16] = compound: COc1cc([C@@H]2c3cc4c(cc3[C@@H](O[C@@H]3O[C@@H]5CO[C@@H](C)O[C@H]5[C@H](O)[C@H]3O)[C@H]3COC(=O)[C@H]23)OCO4)cc(OC)c1O [Etoposide]; settings: max 10 µM
Outline: as §1

[17] = compound: COc1cc2ncnc(Nc3ccc(F)c(Cl)c3)c2cc1OCCCN1CCOCC1 [Gefitinib]; settings: max 10 µM
Outline: as §1

[18] = compound: COc1cccc(OCCCN)c1-c1cc(Nc2cnc(C#N)cn2)n[nH]1 [Prexasertib]; settings: max 1 µM
Outline: as §1

[19] = compound: COc1cccc2c1C(=O)c1c(O)c3c(c(O)c1C2=O)C[C@@](O)(C(=O)CO)C[C@@H]3O[C@H]1C[C@H](N)[C@H](O)[C@H](C)O1 [Doxorubicin]; settings: max 1 µM
Outline: as §1

[20] = compound: COc1nnc2ccc(N3CCC(c4ccc(OCCN5CCN(C)C(=O)[C@H]5C)cc4)CC3)nn12 [AZD5153]; settings: max 1 µM
Outline: as §1

[21] = compound: CS(=O)(=O)CCNCc1ccc(-c2ccc3ncnc(Nc4ccc(OCc5cccc(F)c5)c(Cl)c4)c3c2)o1 [Lapatinib]; settings: max 10 µM
Outline: as §1

[22] = compound: C[C@@H](Nc1cc(F)cc(F)c1)c1cc(C(=O)N(C)C)cc2c(=O)cc(N3CCOCC3)oc12 [AZD8186]; settings: max 10 µM
Outline: as §1

[23] = compound: C[C@@H](Oc1cc(-c2cnn(C3CCNCC3)c2)cnc1N)c1c(Cl)ccc(F)c1Cl [Crizotinib]; settings: max 10 µM
Outline: as §1

[24] = compound: C[C@@H](c1ccc2nccn2c1)n1nnc2ncc(-c3cnn(C)c3)nc21 [Savolitinib]; settings: max 1 µM
Outline: as §1

[25] = compound: C[C@@H]1COCCN1C2=NC(=NC(=C2)C3(CC3)[S@](=N)(=O)C)C4=C5C=CNC5=NC=C4 [AZD6738]; settings: max 10 µM
Outline: as §1

[26] = compound: Cc1c2c(nn1C)CSCc1cc(n(C)n1)CSc1cc(c3ccccc3c1)OCCCc1c(C(=O)O)n(C)c3c-2c(Cl)ccc13 [AZD5991]; settings: max 1 µM
Outline: as §1

[27] = compound: Cc1cc2ncnn2cc1Nc1ncc2c(n1)n(C1CCOCC1)c(=O)n2C [AZD7648]; settings: max 10 µM
Outline: as §1

[28] = compound: Cc1nc(-c2cn3c(n2)-c2ccc(-c4cnn(C(C)(C)C(N)=O)c4)cc2OCC3)n(C(C)C)n1 [Taselisib]; settings: max 10 µM
Outline: as §1

[29] = compound: Cn1cnc2c(F)c(Nc3ccc(Br)cc3Cl)c(C(=O)NOCCO)cc21 [Selumetinib]; settings: max 10 µM
Outline: as §1

[30] = compound: N#Cc1cnc(Nc2cc(NC[C@H]3CNCCO3)c(C(F)(F)F)cn2)cn1 [SRA737]; settings: max 10 µM
Outline: as §1

[31] = compound: NC1(c2ccc(-c3nc4ccn5c(=O)[nH]nc5c4cc3-c3ccccc3)cc2)CCC1 [MK-2206]; settings: max 10 µM
Outline: as §1

[32] = compound: Nc1ccn([C@@H]2O[C@H](CO)[C@@H](O)C2(F)F)c(=O)n1 [Gemcitabine]; settings: max 0.3 µM
Outline: as §1

[33] = compound: O=C(Nc1ccc2[nH]nc(-c3ccncc3)c2c1)[C@@H]1CCN(CC(=O)N2CCN(c3ccc(-c4ncccn4)cc3)CC2)C1; settings: max 5 µM
Outline: as §1

[34] = compound: O=C(c1cc(Cc2n[nH]c(=O)c3ccccc23)ccc1F)N1CCN(C(=O)C2CC2)CC1 [Olaparib]; settings: max 10 µM
Outline: as §1

[35] = compound: O=c1[nH]cc(F)c(=O)[nH]1 [5-Fluorouracil]; settings: max 20 µM
Outline: as §1

Cell Line | IC50, cell viability 72 h [1] [nM] | IC50, cell viability 72 h [2] [nM] | IC50, cell viability 72 h [3] [nM] | IC50, cell viability 72 h [4] [nM] | IC50, cell viability 72 h [5] [nM] | IC50, cell viability 72 h [6] [nM] | IC50, cell viability 72 h [7] [nM] | IC50, cell viability 72 h [8] [nM] | IC50, cell viability 72 h [9] [nM] | IC50, cell viability 72 h [10] [nM] | IC50, cell viability 72 h [11] [nM] | IC50, cell viability 72 h [12] [nM] | IC50, cell viability 72 h [13] [nM] | IC50, cell viability 72 h [14] [nM] | IC50, cell viability 72 h [15] [nM] | IC50, cell viability 72 h [16] [nM] | IC50, cell viability 72 h [17] [nM] | IC50, cell viability 72 h [18] [nM] | IC50, cell viability 72 h [19] [nM] | IC50, cell viability 72 h [20] [nM] | IC50, cell viability 72 h [21] [nM] | IC50, cell viability 72 h [22] [nM] | IC50, cell viability 72 h [23] [nM] | IC50, cell viability 72 h [24] [nM] | IC50, cell viability 72 h [25] [nM] | IC50, cell viability 72 h [26] [nM] | IC50, cell viability 72 h [27] [nM] | IC50, cell viability 72 h [28] [nM] | IC50, cell viability 72 h [29] [nM] | IC50, cell viability 72 h [30] [nM] | IC50, cell viability 72 h [31] [nM] | IC50, cell viability 72 h [32] [nM] | IC50, cell viability 72 h [33] [nM] | IC50, cell viability 72 h [34] [nM] | IC50, cell viability 72 h [35] [nM]
NAMALWA (Burkitt's Lymphoma) | > 10000 | 9010 | 300 | > 1000 | 4.84 | 9880 | > 300 | > 1000 | > 2000 | > 1 | > 1000 | 2.63 | > 3000 | > 1000 | 689 | 272 | > 10000 | 10.5 | 41.4 | 43.1 | > 10000 | 7520 | 2320 | > 1000 | 1140 | 61.1 | > 10000 | 2020 | > 10000 | 1670 | 8200 | 6.04 | > 5000 | > 10000 | 14500
NCI-H226 (Mesothelioma) | > 10000 | > 10000 | > 3000 | > 1000 | > 3000 | > 10000 | > 300 | > 1000 | > 2000 | > 1 | > 1000 | > 300 | > 3000 | > 1000 | > 10000 | > 10000 | > 10000 | > 1000 | > 1000 | > 1000 | > 10000 | > 10000 | > 10000 | > 1000 | > 10000 | > 1000 | > 10000 | > 10000 | > 10000 | > 10000 | > 10000 | > 300 | > 5000 | > 10000 | > 20000
NCI-H3118 (Head and Neck Carcinoma) | > 10000 | > 10000 | 191 | 120 | 15 | > 10000 | > 300 | > 1000 | 309 | > 1 | > 1000 | 277 | > 3000 | > 1000 | > 10000 | 5670 | 1970 | 39.3 | > 1000 | 684 | 4490 | > 10000 | > 10000 | > 1000 | > 10000 | > 1000 | > 10000 | 1060 | 3090 | > 10000 | > 10000 | 64.1 | 912 | > 10000 | > 20000
RCC-JW (Kidney Carcinoma) | > 10000 | > 10000 | 1600 | > 1000 | 109 | > 10000 | > 300 | > 1000 | 85.1 | > 1 | > 1000 | 157 | > 3000 | 895 | > 10000 | > 10000 | > 10000 | > 1000 | > 1000 | > 1000 | 7530 | 5130 | > 10000 | > 1000 | > 10000 | > 1000 | > 10000 | > 10000 | > 10000 | > 10000 | > 10000 | 61.7 | > 5000 | > 10000 | > 20000
SCC-4 (Oral Cavity Carcinoma) | > 10000 | > 10000 | > 3000 | > 1000 | 11.5 | > 10000 | > 300 | > 1000 | > 2000 | > 1 | > 1000 | 53 | > 3000 | > 1000 | 9220 | > 10000 | > 10000 | 154 | > 1000 | > 1000 | > 10000 | > 10000 | > 10000 | > 1000 | 9010 | > 1000 | > 10000 | 1940 | > 10000 | > 10000 | > 10000 | 272 | > 5000 | > 10000 | > 20000
